Experimental data published in ChEMBL document CHEMBL3864149, “Design, synthesis and structure-activity relationships of novel phenylalanine-based amino acids as kainate receptors ligands” (Bioorg Med Chem Lett, 2016).

Key:
[1] = Displacement of [3H]-AMPA from AMPA receptor in rat brain membranes after 30 mins; type: cell membranes, Membrane
[2] = Displacement of [3H]-kainate from kainate receptor in rat brain membranes after 60 mins; type: cell membranes, Membrane
[3] = target: Glutamate receptor ionotropic, kainate 1 (Rattus norvegicus, UniProt P22756); assay: Displacement of [3H]-NF608 from rat recombinant GluK1 receptor expressed in baculovirus infected insect Sf9 cell membranes after 60 mins
Sequence of Glutamate receptor ionotropic, kainate 1 (P22756 whole entry): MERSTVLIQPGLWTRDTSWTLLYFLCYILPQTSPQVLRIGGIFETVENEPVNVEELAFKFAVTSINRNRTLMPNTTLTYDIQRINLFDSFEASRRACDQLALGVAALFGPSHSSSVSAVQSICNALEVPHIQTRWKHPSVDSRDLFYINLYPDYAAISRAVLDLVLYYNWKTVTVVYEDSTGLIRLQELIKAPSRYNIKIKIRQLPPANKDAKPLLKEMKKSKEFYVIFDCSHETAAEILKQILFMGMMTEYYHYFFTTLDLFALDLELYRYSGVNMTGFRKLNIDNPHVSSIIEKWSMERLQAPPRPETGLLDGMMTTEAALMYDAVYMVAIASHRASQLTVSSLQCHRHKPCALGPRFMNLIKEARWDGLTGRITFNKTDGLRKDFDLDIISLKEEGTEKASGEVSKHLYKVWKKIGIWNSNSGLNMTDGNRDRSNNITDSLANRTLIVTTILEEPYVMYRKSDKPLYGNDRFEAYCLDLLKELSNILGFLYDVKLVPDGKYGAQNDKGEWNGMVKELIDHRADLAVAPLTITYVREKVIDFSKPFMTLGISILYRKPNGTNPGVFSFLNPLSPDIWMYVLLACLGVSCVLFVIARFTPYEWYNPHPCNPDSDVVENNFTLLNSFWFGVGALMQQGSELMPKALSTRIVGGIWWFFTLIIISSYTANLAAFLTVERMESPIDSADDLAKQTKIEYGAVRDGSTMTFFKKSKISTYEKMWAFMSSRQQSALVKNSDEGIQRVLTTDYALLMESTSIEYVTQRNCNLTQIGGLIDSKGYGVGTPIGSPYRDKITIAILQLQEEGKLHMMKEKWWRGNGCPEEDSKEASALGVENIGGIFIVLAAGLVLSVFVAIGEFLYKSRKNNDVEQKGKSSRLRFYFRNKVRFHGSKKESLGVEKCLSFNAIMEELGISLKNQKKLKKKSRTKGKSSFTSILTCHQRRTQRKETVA

[4] = target: Glutamate receptor ionotropic, kainate 3 (Rattus norvegicus, UniProt P42264); assay: Displacement of [3H]-kainate from rat recombinant GluK3 receptor expressed in baculovirus infected insect Sf9 cell membranes after 60 mins
Sequence of Glutamate receptor ionotropic, kainate 3 (P42264 whole entry): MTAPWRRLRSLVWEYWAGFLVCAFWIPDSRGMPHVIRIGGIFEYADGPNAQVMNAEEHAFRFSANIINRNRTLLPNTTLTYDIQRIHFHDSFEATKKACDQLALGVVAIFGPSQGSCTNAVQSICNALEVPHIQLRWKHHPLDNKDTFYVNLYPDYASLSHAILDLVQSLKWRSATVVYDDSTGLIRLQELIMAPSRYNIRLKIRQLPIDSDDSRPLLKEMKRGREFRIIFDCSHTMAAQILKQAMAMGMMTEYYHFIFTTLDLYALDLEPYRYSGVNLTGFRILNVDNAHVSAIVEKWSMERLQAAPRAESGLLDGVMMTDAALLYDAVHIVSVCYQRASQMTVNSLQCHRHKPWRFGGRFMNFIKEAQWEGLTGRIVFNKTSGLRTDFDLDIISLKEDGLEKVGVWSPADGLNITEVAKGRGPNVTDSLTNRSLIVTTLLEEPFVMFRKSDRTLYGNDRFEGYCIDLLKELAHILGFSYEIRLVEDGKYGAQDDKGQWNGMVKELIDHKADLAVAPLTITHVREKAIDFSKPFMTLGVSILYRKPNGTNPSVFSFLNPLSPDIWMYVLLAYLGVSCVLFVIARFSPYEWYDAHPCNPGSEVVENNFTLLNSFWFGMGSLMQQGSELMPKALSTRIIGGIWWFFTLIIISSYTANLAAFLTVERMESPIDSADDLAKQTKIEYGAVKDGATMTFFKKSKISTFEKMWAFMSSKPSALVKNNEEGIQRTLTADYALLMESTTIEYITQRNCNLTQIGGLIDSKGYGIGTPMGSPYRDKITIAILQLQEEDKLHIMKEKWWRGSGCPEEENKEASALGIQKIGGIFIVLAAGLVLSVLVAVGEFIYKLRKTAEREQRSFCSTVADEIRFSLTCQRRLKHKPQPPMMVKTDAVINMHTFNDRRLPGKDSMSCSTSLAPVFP

[5] = target: Glutamate receptor ionotropic, kainate 2 (Homo sapiens, UniProt Q13002); assay: Displacement of [3H]-kainate from human recombinant GluK2 receptor expressed in HEK293 cell membranes after 60 mins
Sequence of Glutamate receptor ionotropic, kainate 2 (Q13002 whole entry): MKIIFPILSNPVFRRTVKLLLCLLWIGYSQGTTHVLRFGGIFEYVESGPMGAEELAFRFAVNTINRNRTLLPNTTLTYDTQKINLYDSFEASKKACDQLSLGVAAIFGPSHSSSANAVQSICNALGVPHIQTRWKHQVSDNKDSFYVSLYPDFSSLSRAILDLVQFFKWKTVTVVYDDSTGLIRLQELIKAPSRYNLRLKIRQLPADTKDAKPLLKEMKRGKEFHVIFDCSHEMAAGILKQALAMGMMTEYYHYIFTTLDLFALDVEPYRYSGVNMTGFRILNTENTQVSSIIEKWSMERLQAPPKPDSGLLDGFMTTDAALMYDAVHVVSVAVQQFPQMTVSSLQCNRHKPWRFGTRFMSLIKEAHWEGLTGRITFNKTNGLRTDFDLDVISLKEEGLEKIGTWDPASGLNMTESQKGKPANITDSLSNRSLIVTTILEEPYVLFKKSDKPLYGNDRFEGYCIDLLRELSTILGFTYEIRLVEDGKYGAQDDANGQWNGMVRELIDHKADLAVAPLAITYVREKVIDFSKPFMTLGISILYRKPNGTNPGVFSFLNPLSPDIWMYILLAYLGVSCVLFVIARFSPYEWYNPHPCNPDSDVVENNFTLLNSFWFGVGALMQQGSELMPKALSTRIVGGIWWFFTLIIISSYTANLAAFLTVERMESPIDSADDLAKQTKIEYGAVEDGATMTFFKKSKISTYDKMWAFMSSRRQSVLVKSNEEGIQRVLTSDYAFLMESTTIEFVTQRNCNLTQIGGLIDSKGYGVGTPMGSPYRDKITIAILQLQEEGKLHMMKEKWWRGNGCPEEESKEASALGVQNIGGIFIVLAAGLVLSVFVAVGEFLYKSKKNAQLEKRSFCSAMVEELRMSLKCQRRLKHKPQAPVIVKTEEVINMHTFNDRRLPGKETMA

[6] = target: T1, Glutamate receptor ionotropic, kainate 5 (Homo sapiens, UniProt Q16478); assay: Displacement of [3H]-kainate from human recombinant GluK5 receptor expressed in HEK293 cell membranes after 60 mins
T1 sequence (Q16478 whole entry): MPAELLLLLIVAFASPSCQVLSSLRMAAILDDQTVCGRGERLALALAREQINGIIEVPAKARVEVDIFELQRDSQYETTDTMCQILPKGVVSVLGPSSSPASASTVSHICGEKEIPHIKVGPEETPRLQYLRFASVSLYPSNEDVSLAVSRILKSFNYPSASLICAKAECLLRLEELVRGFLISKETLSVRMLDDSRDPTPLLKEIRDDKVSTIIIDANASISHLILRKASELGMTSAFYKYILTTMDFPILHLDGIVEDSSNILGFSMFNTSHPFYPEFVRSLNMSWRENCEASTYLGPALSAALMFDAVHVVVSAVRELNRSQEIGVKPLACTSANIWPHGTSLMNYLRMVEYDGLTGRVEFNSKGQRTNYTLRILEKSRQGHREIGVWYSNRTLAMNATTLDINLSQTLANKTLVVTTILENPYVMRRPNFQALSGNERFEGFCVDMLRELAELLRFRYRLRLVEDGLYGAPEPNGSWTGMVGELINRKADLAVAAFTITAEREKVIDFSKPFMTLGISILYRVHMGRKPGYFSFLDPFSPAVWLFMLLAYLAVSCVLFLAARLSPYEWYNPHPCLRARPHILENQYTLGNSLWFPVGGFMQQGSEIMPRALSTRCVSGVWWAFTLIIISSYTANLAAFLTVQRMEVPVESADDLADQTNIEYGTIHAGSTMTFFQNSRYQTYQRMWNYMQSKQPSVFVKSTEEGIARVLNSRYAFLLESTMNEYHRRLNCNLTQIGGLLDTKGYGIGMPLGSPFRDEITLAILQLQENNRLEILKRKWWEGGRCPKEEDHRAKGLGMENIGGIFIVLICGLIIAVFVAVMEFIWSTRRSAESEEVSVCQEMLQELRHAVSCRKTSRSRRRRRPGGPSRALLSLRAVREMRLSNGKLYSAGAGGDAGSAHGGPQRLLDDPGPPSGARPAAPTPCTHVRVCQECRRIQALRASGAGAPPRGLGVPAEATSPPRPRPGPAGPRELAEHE

[7] = Displacement of [3H]-AMPA from AMPA receptor in rat brain membranes after 1 hr by liquid scintillation counting method; type: cell membranes, Membrane
[8] = Displacement of [3H]-kainate from kainate receptor in rat brain membranes after 1 hr by liquid scintillation counting method; type: cell membranes, Membrane
Rattus norvegicus = organism: Rattus norvegicus; assay: Selectivity ratio of Ki for rat recombinant GluK3 receptor to Ki for rat recombinant GluK1 receptor

Row | SMILES | Ki [1] | Ki [2] | Ki ([3]; read-out: Ki) | Ki [4] | Ki ([3]; read-out: pKi (converted)) | pKi [1] | further results
1 | O=C(O)[C@@H]1C[C@H]2C[C@@H](CN3CC(F)(F)C[C@H]3C(=O)O)CC[C@H]2CN1 | – | – | – | – | – | – | Ki [5]: 50 nM; Ki [6]: 8.9 µM
2 | CC(C)(C)c1onc(OCP(=O)(O)O)c1C[C@H](N)C(=O)O | – | – | – | > 1000 µM | – | – | IC50 [7]: 16 µM; IC50 [8]: > 100 µM
3 | Nc1c(Cl)cc(CC(N)C(=O)O)cc1-c1cccc(C(=O)O)c1 (racemic) | 100 µM | > 100 µM | 4.9 µM | > 100 µM | 4.68 µM | – | Ratio Ki (Rattus norvegicus): 20
4 | NC(Cc1cc(Cl)c(Cl)c(-c2cccc(C(=O)O)c2)c1)C(=O)O (centres undefined) | – | – | – | > 100 µM | – | – | –
5 | NC(Cc1cc(-c2cccc(C(=O)O)c2)c(Cl)c([N+](=O)[O-])c1)C(=O)O (racemic) | 62 µM | 32 µM | 6.1 µM | > 100 µM | 5.89 µM | 4.21 | pKi [2]: 4.5
6 | NC(Cc1cc(-c2cccc(C(=O)O)c2)cc([N+](=O)[O-])c1)C(=O)O (racemic) | 38 µM | > 100 µM | 32 µM | > 100 µM | – | 4.43 | –
7 | NC(Cc1ccc(Cl)c(-c2cccc(C(=O)O)c2)c1)C(=O)O (racemic) | > 100 µM | > 100 µM | 35 µM | > 100 µM | – | – | –

Second part, led by results:

Row | Ki [1] | Ki [2] | Ki ([3]; read-out: Ki) | Ki [4] | Ki ([3]; read-out: pKi (converted)) | pKi [1] | SMILES | further results
8 | > 100 µM | > 100 µM | 26 µM | > 100 µM | – | – | Nc1ccc(CC(N)C(=O)O)cc1-c1cccc(C(=O)O)c1 (racemic) | –
9 | > 100 µM | > 100 µM | 7.5 µM | > 100 µM | 7.08 µM | – | Nc1c(-c2cccc(C(=O)O)c2)cc(CC(N)C(=O)O)cc1[N+](=O)[O-] (racemic) | –
10 | – | – | – | > 100 µM | – | – | NC(Cc1cccc(-c2cccc(C(=O)O)c2)c1)C(=O)O (centres undefined) | –
11 | > 100 µM | > 100 µM | 5.5 µM | 11 µM | – | – | NC(Cc1cc(Cl)c(O)c(-c2cccc(C(=O)O)c2)c1)C(=O)O (racemic) | Ratio Ki (Rattus norvegicus): 2
12 | 51 µM | > 100 µM | 5.7 µM | 25 µM | 5.5 µM | 4.31 | NC(Cc1cc(Cl)cc(-c2cccc(C(=O)O)c2)c1)C(=O)O (racemic) | –
13 | 65 µM | > 100 µM | 7.2 µM | 23 µM | – | 4.19 | NC(Cc1ccc([N+](=O)[O-])c(-c2cccc(C(=O)O)c2)c1)C(=O)O (racemic) | –
